{"source": "patent US12162888B2", "about": "“Carboxamides as ubiquitin-specific protease inhibitors” (Valo Early Discovery, Inc., priority 2018, dated 2024)", "note": "pIC50: −log10 of the molar value.", "data": [{"biological_target": "T1, USP28 (His-tagged USP28-FL-mammalian) (Homo sapiens, UniProt Q96RU2)", "T1 construct": "Expression of USP28 (1-1077)-TEV-6*His (pTT5 vector) was carried out in Expi293f cells; made in house; host or cells: Expi293F cells (pTT5 vector)", "T1 sequence (Q96RU2 1-1077)": "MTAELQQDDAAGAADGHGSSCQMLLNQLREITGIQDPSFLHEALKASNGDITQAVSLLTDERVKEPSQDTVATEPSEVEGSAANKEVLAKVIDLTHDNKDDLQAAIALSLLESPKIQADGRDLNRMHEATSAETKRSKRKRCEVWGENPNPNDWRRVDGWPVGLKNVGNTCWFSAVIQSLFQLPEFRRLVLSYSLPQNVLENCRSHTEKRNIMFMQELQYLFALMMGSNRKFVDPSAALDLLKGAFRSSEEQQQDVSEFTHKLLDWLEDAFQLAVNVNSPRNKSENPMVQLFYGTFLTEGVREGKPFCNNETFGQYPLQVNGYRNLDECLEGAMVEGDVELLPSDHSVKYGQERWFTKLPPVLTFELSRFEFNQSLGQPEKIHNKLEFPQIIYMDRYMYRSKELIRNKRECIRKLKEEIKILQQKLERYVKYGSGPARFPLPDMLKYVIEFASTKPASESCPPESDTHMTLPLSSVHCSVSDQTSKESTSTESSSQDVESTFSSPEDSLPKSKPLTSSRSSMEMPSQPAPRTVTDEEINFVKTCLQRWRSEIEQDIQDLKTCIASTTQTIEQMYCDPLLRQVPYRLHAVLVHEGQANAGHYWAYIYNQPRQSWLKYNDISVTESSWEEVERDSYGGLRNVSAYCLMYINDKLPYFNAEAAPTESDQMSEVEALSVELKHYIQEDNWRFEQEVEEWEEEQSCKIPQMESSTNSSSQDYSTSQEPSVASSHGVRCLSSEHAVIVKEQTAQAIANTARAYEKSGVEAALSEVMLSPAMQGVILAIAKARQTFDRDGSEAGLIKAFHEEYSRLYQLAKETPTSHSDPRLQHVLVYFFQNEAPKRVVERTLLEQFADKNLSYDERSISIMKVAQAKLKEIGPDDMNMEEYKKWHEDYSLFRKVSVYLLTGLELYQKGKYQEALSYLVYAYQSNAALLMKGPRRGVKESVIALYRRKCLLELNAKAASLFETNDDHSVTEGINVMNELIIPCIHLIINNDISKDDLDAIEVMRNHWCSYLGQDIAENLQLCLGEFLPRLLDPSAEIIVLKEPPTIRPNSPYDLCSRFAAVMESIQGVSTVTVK", "test": "Ubiquitin-Rhodamine 110 Assay for USP28 Activity, Example A-1(a)", "format": "biochemical", "details": "Ubiquitin-Rhodamine 110 assay, read-out: USP28 A-1(a) IC50 range", "method_in_brief": "(§1)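 Full-length His-tagged human USP28 (1-1077), expressed in Expi293F cells, was used at […] with 25 nM Ub-Rh110 (<<Km) in 20 mM Tris pH 8.0, 3 mM BME, 0.03% BGG and 0.01% Triton X-100. Compounds (25 μM-1.3 nM, 10-point) were preincubated with enzyme for 30 min, and the reaction ran 45 min at room temperature before a citric acid stop. Fluorescence was read at 485/535 nm, and IC50 came from 4-parameter fits of percent inhibition.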", "values": [{"smiles": "Cc1ccc2c(N)c(C(=O)N[C@H]3COc4cc(N5CC[C@@]6(C5)OCC[C@H]6N)ccc4C3)sc2n1", "note": "[Example 409, 3-amino-N-[(3R)-7-[(4R,5S)-4-amino-1-oxa-7-azaspiro[4.4]nonan-7-yl]-3,4-dihydro-2H-1-benzopyran-3-yl]-6-methylthieno[2,3-b]pyridine-2-carboxamide]", "pIC50": "7.30 to 9.00"}]}, {"biological_target": "T1, USP28 (His-tagged USP28-FL-mammalian)", "test": "Ubiquitin-Rhodamine 110 Assay for USP28 Activity, Example A-1(a)", "format": "biochemical", "details": "Ubiquitin-Rhodamine 110 biochemical assay, read-out: USP28 A-1(a) IC50 range", "method_in_brief": "as §1", "values": [{"smiles": "CN[C@H]1CN(c2ccc3c(n2)CC[C@H](NC(=O)c2sc4nc(C)ccc4c2N)C3)C[C@]12CCCCO2", "note": "[Example 502, 3-amino-6-methyl-N-[(6S)-2-[(4S,5R)-4-(methylamino)-6-oxa-2-azaspiro[4.5]decan-2-yl]-5,6,7,8-tetrahydroquinolin-6-yl]thieno[2,3-b]pyridine-2-carboxamide]", "pIC50": "6.70 to 7.30"}, {"smiles": "CO[C@H]1CCCN(c2ccc3c(n2)CC[C@H](NC(=O)c2sc4nc(C)ccc4c2N)C3)C[C@@H]1N", "note": "[Example 494, 3-amino-N-[(6S)-2-[(3S,4S)-3-amino-4-methoxyazepan-1-yl]-5,6,7,8-tetrahydroquinolin-6-yl]-6-methylthieno[2,3-b]pyridine-2-carboxamide]", "pIC50": "7.30 to 9.00"}, {"smiles": "CO[C@H]1CCCN(c2ccc3c(n2)CC[C@H](NC(=O)c2sc4nc(C)ccc4c2N)C3)C[C@H]1N", "note": "[Example 501, 3-amino-N-[(6S)-2-[(3R,4S)-3-amino-4-methoxyazepan-1-yl]-5,6,7,8-tetrahydroquinolin-6-yl]-6-methylthieno[2,3-b]pyridine-2-carboxamide]", "pIC50": "5.70 to 6.70"}]}, {"biological_target": "T1, USP28 (His-tagged USP28-FL-mammalian)", "test": "Ubiquitin-Rhodamine 110 Assay for USP28 Activity, Example A-1(a)", "format": "biochemical", "details": "biochemical IC50 range, Ubiquitin-Rhodamine 110 assay, read-out: USP28 A-1(a)", "method_in_brief": "as §1", "values": [{"smiles": "Cc1ccc2c(N)c(C(=O)N[C@H]3COc4cc(N5C[C@H](N)[C@]6(CCCCO6)C5)ccc4C3)sc2n1", "note": "[Example 652, 3-amino-N-[(3R)-7-[(4S,5S)-4-amino-6-oxa-2-azaspiro[4.5]decan-2-yl]-3,4-dihydro-2H-1-benzopyran-3-yl]-6-methylthieno[2,3-b]pyridine-2-carboxamide]", "pIC50": "7.30 to 9.00"}, {"smiles": "Cc1ccc2c(N)c(C(=O)N[C@H]3COc4cc(N5C[C@@H](N)C6(C5)OCCO6)ccc4C3)sc2n1", "note": "[Example 682, 3-amino-N-[(3R)-7-[(9R)-9-amino-1,4-dioxa-7-azaspiro[4.4]nonan-7-yl]-3,4-dihydro-2H-1-benzopyran-3-yl]-6-methylthieno[2,3-b]pyridine-2-carboxamide]", "pIC50": "6.70 to 7.30"}, {"smiles": "Cc1ccc2c(N)c(C(=O)N[C@H]3COc4nc(N5C[C@H](N)C6(C5)OCCO6)ccc4C3)sc2n1", "note": "[Example 543, 3-amino-N-[(3R)-7-[(9S)-9-amino-1,4-dioxa-7-azaspiro[4.4]nonan-7-yl]-2H,3H,4H-pyrano[2,3-b]pyridin-3-yl]-6-methylthieno[2,3-b]pyridine-2-carboxamide]", "pIC50": "5.70 to 6.70"}, {"smiles": "Cc1ccc2c(N)c(C(=O)N[C@H]3COc4cc(N5C[C@H](COC(F)(F)F)[C@H](N)C5)ccc4C3)sc2n1", "note": "[Example 673, 3-amino-N-[(3R)-7-[(3S,4S)-3-amino-4-[(trifluoromethoxy)methyl]pyrrolidin-1-yl]-3,4-dihydro-2H-1-benzopyran-3-yl]-6-methylthieno[2,3-b]pyridine-2-carboxamide]", "pIC50": "7.30 to 9.00"}, {"smiles": "COC[C@@H]1CN(c2cc(F)c3c(c2)OC[C@H](NC(=O)c2sc4nc(C)ncc4c2N)C3)C[C@@H]1N", "note": "[Example 694, 5-amino-N-[(3R)-7-[(3R,4R)-3-amino-4-(methoxymethyl)pyrrolidin-1-yl]-5-fluoro-3,4-dihydro-2H-1-benzopyran-3-yl]-2-methylthieno[2,3-d]pyrimidine-6-carboxamide]", "pIC50": "5.70 to 6.70"}, {"smiles": "Cc1ccc2c(N)c(C(=O)N[C@H]3COc4cc(N5C[C@H](N)[C@@]6(C5)OCC[C@@H]6C)ccc4C3)sc2n1", "note": "[Example 612-1, 3-amino-N-[(3R)-7-[(4S,5R,9S)-9-amino-4-methyl-1-oxa-7-azaspiro[4.4]nonan-7-yl]-3,4-dihydro-2H-1-benzopyran-3-yl]-6-methylthieno[2,3-b]pyridine-2-carboxamide]", "pIC50": "7.30 to 9.00"}, {"smiles": "CCNC1CN(c2ccc3c(c2)OCC(NC(=O)c2sc4nc(C)ccc4c2N)C3)CC1COC", "note": "[Example 668, 3-amino-N-[(3R)-7-[(3R,4S)-3-(ethylamino)-4-(mcthoxymcthyl)pyrrolidin-1-yl]-3,4-dihydro-2H-1-benzopyran-3-yl]-6-methylthicno[2,3-b]pyridinc-2-carboxamide]", "pIC50": "7.30 to 9.00"}, {"smiles": "Cc1ccc2c(N)c(C(=O)N[C@H]3COc4nc(N5C[C@H](CF)[C@H](N)C5)ccc4C3)sc2n1", "note": "[Example 540, 3-amino-N-[(3R)-7-[(3S,4S)-3-amino-4-(fluoromethyl)pyrrolidin-1-yl]-2H,3H,4H-pyrano[2,3-b]pyridin-3-yl]-6-methylthieno[2,3-b]pyridine-2-carboxamide]", "pIC50": "6.70 to 7.30"}, {"smiles": "CCn1cc(Cl)c2cc(C(=O)N[C@H]3COc4cc(N5C[C@H](OC)[C@@H](N)C5)ccc4C3)nnc21", "note": "[Example 696, N-[(3R)-7-[(3S,4S)-3-amino-4-methoxypyrrolidin-1-yl]-3,4-dihydro-2H-1-benzopyran-3-yl]-5-chloro-7-ethyl-7Hpyrrolo[2,3-c]pyridazine-3-carboxamide]", "pIC50": "5.70 to 6.70"}, {"smiles": "Cc1ccc2c(N)c(C(=O)N[C@H]3COc4nc(N5C[C@@H](N)C6(C5)OCCO6)ccc4C3)sc2n1", "note": "[Example 544, 3-amino-N-[(3R)-7-[(9R)-9-amino-1,4-dioxa-7-azaspiro[4.4]nonan-7-yl]-2H,3H,4H-pyrano[2,3-b]pyridin-3-yl]-6-methylthieno[2,3-b]pyridine-2-carboxamide]", "pIC50": "5.70 to 6.70"}, {"smiles": "CCOc1ncc(C(=O)N[C@H]2COc3cc(N4CCNCC4)ccc3C2)c2c1CCCN2", "note": "[Example 678, 5-ethoxy-N-[(3R)-7-(piperazin-1-yl)-3,4-dihydro-2H-1-benzopyran-3-yl]-1,2,3,4-tetrahydro-1,6-naphthyridine-8-carboxamide]", "pIC50": "7.30 to 9.00"}, {"smiles": "Cc1ccc2c(N)c(C(=O)N[C@H]3COc4nc(N5C[C@H](CF)[C@@H](N)C5)ccc4C3)sc2n1", "note": "[Example 541, 3-amino-N-[(3R)-7-[(3R,4S)-3-amino-4-(fluoromethyl)pyrrolidin-1-yl]-2H,3H,4H-pyrano[2,3-b]pyridin-3-yl]-6-methylthieno[2,3-b]pyridine-2-carboxamide]", "pIC50": "5.70 to 6.70"}, {"smiles": "Cc1ccc2c(N)c(C(=O)N[C@H]3COc4cc(N5C[C@@H](N)[C@@]6(CCCCO6)C5)ccc4C3)sc2n1", "note": "[Example 653, 3-amino-N-[(3R)-7-[(4R,5R)-4-amino-6-oxa-2-azaspiro[4.5]decan-2-yl]-3,4-dihydro-2H-1-benzopyran-3-yl]-6-methylthieno[2,3-b]pyridine-2-carboxamide]", "pIC50": "7.30 to 9.00"}]}]}
